Reference: US7807711B2, “Medicinal acidic cannabinoids” (priority 2004, dated 2010)
pKd: −log10 of the molar value. Like-named read-outs stand apart in the source and are kept apart here.

How the values were obtained:
recombinant human CB2 = molecular target: T1, recombinant human CB2 (Homo sapiens, UniProt P34972); experiment: Competitive receptor binding against tritium labelled CP55,940, CB2
T1 construct: expressed in transfected cells; host or cells: Sf9 cells

recombinant human CB1 = molecular target: T2, recombinant human CB1 (Homo sapiens, UniProt P21554); experiment: biochemical; type: binding
T2 construct: expressed in transfected cells; host or cells: Sf9 cells
T2 sequence (P21554 whole entry): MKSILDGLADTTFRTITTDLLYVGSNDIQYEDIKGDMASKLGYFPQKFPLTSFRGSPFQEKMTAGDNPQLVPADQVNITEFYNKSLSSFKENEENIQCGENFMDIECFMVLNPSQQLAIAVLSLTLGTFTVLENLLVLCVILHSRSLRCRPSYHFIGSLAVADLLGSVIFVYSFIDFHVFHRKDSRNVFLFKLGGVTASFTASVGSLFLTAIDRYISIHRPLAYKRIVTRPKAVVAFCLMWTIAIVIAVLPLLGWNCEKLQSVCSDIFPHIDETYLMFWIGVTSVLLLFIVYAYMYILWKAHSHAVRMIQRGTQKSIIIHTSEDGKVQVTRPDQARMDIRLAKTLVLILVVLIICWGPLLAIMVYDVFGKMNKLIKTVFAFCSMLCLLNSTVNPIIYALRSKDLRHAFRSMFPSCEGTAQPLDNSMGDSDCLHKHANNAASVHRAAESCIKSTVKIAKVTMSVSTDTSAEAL

[1] = system: Experimental Autoimmune Encephalomyelitis; experiment: Mouse model for Experimental Autoimmune Encephalomyelitis; type: in vivo; settings: SJL mice, day 0-20
Description: The effect of purified THC-acid and unheated cannabis extracts were tested in vivo in a mouse model for Experimental Autoimmune Encephalomyelitis.
Between day 0 and day 20 after onset of the disease the mice were treated daily with a specified oral dose of THC-acid or unheated extract according to the following scheme:
Group 1: vehicle (0.2 mL olive oil/day);
Group 2: 1 mg purified THC-acid in 0.2 mL olive oil/day;
Group 3: unheated cannabis extract in 0.2 mL olive oil containing 1 mg THC-acid/day.
1: mild perivascular accumulation
2: mild perivascular accumulation, multi-focal
3: perivascular accumulation, multiple cell layers, multi-focal.

[2] = system: mRNA coding for interleukin-10 (IL-10); experiment: IL-10 mRNA level (RT-PCR) in PHA-stimulated PBMC; type: cell-based; settings: PBMC stimulated by PHA, incubation 4 days; relative to β-actine
[3] = system: mRNA coding for TNF-alpha; experiment: TNF-alpha mRNA level (RT-PCR) in PHA-stimulated PBMC; type: cell-based; settings: PBMC stimulated by PHA, incubation 4 days; relative to β-actine

T1 sequence (P34972 whole entry): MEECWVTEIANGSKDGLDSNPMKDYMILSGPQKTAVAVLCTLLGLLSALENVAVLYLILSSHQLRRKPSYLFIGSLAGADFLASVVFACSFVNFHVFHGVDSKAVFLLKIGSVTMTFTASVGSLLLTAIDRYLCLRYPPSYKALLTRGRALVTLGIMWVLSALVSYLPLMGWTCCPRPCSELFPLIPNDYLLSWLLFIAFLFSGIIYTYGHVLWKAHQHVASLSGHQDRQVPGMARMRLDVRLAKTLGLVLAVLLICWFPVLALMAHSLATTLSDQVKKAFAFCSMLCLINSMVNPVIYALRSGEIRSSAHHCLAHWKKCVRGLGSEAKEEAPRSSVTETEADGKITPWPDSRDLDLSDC

CCCCCc1cc(O)c2c(c1)OC(C)(C)c1ccc(C)cc1-2 [CBN*, cannabinol, reference compound]
pKd (recombinant human CB2): 7.77 | pKd (recombinant human CB1): 7.44

CCCCCc1cc2c(c(O)c1C(=O)O)C1C=C(C)CCC1C(C)(C)O2 (centres unmarked) [THC-A, Δ^9-tetrahydrocannabinolic acid]
number of inflammatory cells in the brain stem compared to vehicle ([1]; 1 mg THC-acid/day oral in olive oil, sacrificed after 42 days): reduced the number of inflammatory cells in the brain stem significantly | clinical score ([1]; 1 mg THC-acid/day oral, FIG. 4): improved the clinical score significantly | pKd (recombinant human CB2; purified components, Sf9 cells, read-out: Kd CB2): < 6.00 | pKd (recombinant human CB1; purified components, Sf9 cells, read-out: Kd CB1): < 6.00 | level of the anti-inflammatory cytokine IL-10 (mRNA) [2]: increase | level of the pro-inflammatory cytokine TNFα (mRNA) [3]: decrease
